Assays:
[1] = test system: CAR-T cells induced death of RAJI-GLuc cells; test: Effect of drugs on CAR-T cell-induced death of RAJI-GLuc cells (GLuc assay); format: cell-based, human; details: for CAR-T cell induced cell death: FMC63 and CD19MM CAR-T cells, Imatinib 50 nM and 500 nM, Nilotinib 10 nM and 100 nM, Axitinib; for CAR-T cells induced death of RAJI-pLenti-GLuc cells / CAR-T cell-induced death of RAJI-pLenti-GLuc cells / CAR-T cells induced cell death: CD19Bu12 CAR-T cells; for CAR-T cell-induced death of RAJI-pLenti-GLuc cells: versus media alone
[2] = test system: Blinatumomab induced cell death of RAJI-GLuc cells mediated by T cells; test: Blinatumomab-induced, T cell-mediated death of RAJI-GLuc cells and its block by drugs (GLuc assay); format: cell-based, human
Lck = Lck (Homo sapiens, UniProt P06239); details: Lck versus Fyn; cited from earlier work
[3] = test system: target cells expressing their respective target antigen; test: Jurkat-NFAT-GFP assay, co-culture with target cells expressing the respective target antigen (Table 28); details: Jurkat-NFAT-GFP cells expressing the CAR; cell line(s) giving greater % GFP positive cells than parental
NF-κB = NF-κB luciferase reporter assay in 293FT cells; format: cell-based; details: upon treatment with AP20187, versus untreated
Experimental: NF-κB reporter assay was carried out essentially as described (Chaudhary et al., Oncogene 18:5738-46, 1999). The indicated constructs were transiently transfected in 293FT cells along with a luciferase reporter construct driven by 4 copies of NF-κB binding site and a RSV-LacZ reporter construct. Cells were left untreated or treated with AP20187, which dimerizes the FKBP domains, resulting in activation of K13 signaling. Approximately 24 hr later, cells were lysed and NF-κB-Luc and LacZ activities measured in cell lysates. NF-κB-Luc activity was normalized relative to LacZ activity to control for difference in transfection efficiency. […] Thus, activity of K13 and Tax can be controlled by fusion with FKBP and subsequent administration of AP20187 when they are expressed alone or as part of CAR constructs.
It would be useful to have novel mutants of K13 with varying levels of NF-κB activity for the purpose of adoptive cellular therapy and other applications. Site-directed mutagenesis was conducted using Quickchange site-directed kit (Stratagene) to generate several point mutants of K13 in which the different amino acids of K13 (SEQ ID NO:2629) were mutated. For example, in the mutant K19A the amino acid Lysine at position 19 is mutated to alanine. […] Approximately 24 hr later, cells were lysed and NF-κB-Luc and LacZ activities measured in cell lysates. […]

[4] = at the indicated concentrations

Sequence of Lck (P06239 whole entry, species assumed): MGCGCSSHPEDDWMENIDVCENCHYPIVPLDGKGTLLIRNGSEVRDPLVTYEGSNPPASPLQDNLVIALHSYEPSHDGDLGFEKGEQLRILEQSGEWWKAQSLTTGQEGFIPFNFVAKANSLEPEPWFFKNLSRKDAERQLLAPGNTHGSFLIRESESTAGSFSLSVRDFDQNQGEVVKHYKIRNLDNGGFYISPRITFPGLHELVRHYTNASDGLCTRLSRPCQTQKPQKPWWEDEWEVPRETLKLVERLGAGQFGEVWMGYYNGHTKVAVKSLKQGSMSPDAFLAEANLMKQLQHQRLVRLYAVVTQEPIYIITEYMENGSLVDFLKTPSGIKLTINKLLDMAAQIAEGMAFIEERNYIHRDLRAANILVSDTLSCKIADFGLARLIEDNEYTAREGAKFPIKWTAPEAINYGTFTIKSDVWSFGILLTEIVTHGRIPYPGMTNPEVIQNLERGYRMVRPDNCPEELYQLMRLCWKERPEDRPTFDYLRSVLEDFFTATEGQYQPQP

## Cc1cn(-c2cc(NC(=O)c3ccc(C)c(Nc4nccc(-c5cccnc5)n4)c3)cc(C(F)(F)F)c2)cn1 [Nilotinib]
[1]
  CAR-T cell induced cell death: no effect

## COc1cc(-c2nn([C@H]3CC[C@H](N4CCN(C(C)=O)CC4)CC3)c3ncnc(N)c23)ccc1NC(=O)c1cc2ccccc2n1C [A-770041]
[2]; 100 nM
  cell death induced by combination of Blinatumomab with T cells: partially blocked
[2]; 200 nM
  cell death induced by combination of Blinatumomab with T cells: complete inhibition
[1]; 100 nM and 200 nM
  CAR-T cells induced death of RAJI-pLenti-GLuc cells: near complete inhibition
Lck
  selective against Fyn: 300 fold

## CN1CCN(CCOc2cc(OC3CCOCC3)c3c(Nc4c(Cl)ccc5c4OCO5)ncnc3c2)CC1 [Saracatinib]
[1]; concentration not given
  CAR-T cells induced death of RAJI-pLenti-GLuc cells: no significant effect

## CD8SP-CD22-m971-(vL-vH)-Myc-BBz-T2A-PAC(091515-A02)[SEQ ID NO: 1519]
[3]
  Positive Cell Line on co-culture assay: RAJI, NALM6

## COc1cc(Nc2ncc(F)c(Nc3ccc4c(n3)N(COP(=O)(O)O)C(=O)C(C)(C)O4)n2)cc(OC)c1OC [Fosatamatinib]
[2]; [4]
  Blinatumomab induced cell death mediated by T cells: only a minimal effect
[1]
  CAR-T cell-induced death of RAJI-pLenti-GLuc cells: mild to modest inhibition

## Cc1ccc(NC(=O)c2ccc(CN3CCN(C)CC3)cc2)cc1Nc1nccc(-c2cccnc2)n1 [Imatinib]
[1]; CD19MM CAR-T cells, E:T 5:1, 4 h, indicated concentrations
  CAR-induced cell death: no effect
[1]
  CAR-T cell induced cell death: no effect

## FKBPX2-K13: K13 in fusion with two copies of FKBP dimerization domain
NF-κB
  K13- and HTLV2-Tax RS mutant-induced NF-κB-Luc activity: increase

## COc1cc(Nc2ncc3c(n2)-c2ccc(Cl)cc2C(c2c(F)cccc2OC)=NC3)ccc1C(=O)O [Alisertib]
[2]; [4]
  Blinatumomab induced cell death mediated by T cells: only a minimal effect
[1]
  CAR-T cell-induced death of RAJI-pLenti-GLuc cells: mild to modest inhibition

## CNC(=O)c1ccccc1Sc1ccc2c(/C=C/c3ccccn3)n[nH]c2c1 [Axitinib]
[1]
  CAR-T cell induced cell death: no effect

## CC(C)c1cc(C(C)C)c(CC(=O)NS(=O)(=O)Oc2c(C(C)C)cccc2C(C)C)c(C(C)C)c1 [Avasimibe]
[2]; 1 μM
  Blinatumomab induced cell death mediated by T cells: blocked
[1]; 100 nM
  CAR-T cells induced cell death: no significant effect
[1]; 1 μM
  CAR-T cells induced cell death: completely blocked

## CD8SP-GD3-KM-641-(vL-vH)-Myc-z-P2A-K13-Flag-T2A-PAC(051016-D04)[SEQ ID NO: 1065]
[3]
  Positive Cell Line on co-culture assay: MEL624
